Measured values from patent publication US20020193425A1, “Cancer chemopreventative compounds and compositions and methods of treating cancers” (priority 2001, published 2002).
≈ marks a conversion by molar mass, not a printed value. Like-named read-outs stand apart in the source and are kept apart here.

Columns and labels:
[1] = Cytotoxicity, viability by Trypan blue exclusion; details: human, Reh cells, Cytotoxicity (IC50, ng/ml), four days
Method: (§8) All cell lines were maintained in suspension culture using RPMI 1640 medium supplemented with 10% heat-inactivated fetal bovine serum, 100 units of penicillin/ml and 100 μg of streptomycin/ml at 37° C. in a humidified atmosphere of 5% CO2 in air.
(§9) ^aViability was determined by Trypan blue exclusion in duplicate samples. […] Results are expressed as median inhibitory cell concentrations of two independent experiments (±standard deviations).

Reh = assay: Cytotoxicity, viability by Trypan blue exclusion; details: four days
Method: as §8, §9

[2] = Cytotoxicity, viability by Trypan blue exclusion; details: human, RS4;11 cells, Cytotoxicity (IC50, ng/ml), four days
Method: as §8, §9

NB4 [3] = assay: NSE expression (monocyte marker); assay type: cell-based; details: 4 days
Method: (§1) Cell lines were tested using a 4-day incubation protocol, unless otherwise specified.
(§2) 2) NBT/NSE/SE. Evaluation of NBT reduction was used to assess the ability of sample-treated cells to produce superoxide when challenged with TPA. A 1:1 (v/v) mixture of a cell suspension (10^6 cells) and TPA/NBT solution (2 mg/ml NBT and 1 μg/ml TPA in phosphate buffer saline (PBS)) was incubated for 1 h at 37° C. Then, cells were smeared on glass slides, and counterstained with 0.3% (w/v) safranin O in methanol. Positive cells reduce NBT yielding intracellular black-blue formazan deposits. NSE/SE are monocytic/granulocytic esterases that can be visualized by cytochemical staining using commercially available kits (α-Naphthyl Acetate Esterase and Naphthol As-D Chloroacetate Esterase kits, Sigma Chemical Co., St. Louis, Mo.). Positive-stained cells were quantified by microscopic examination of >200 cells. Results were expressed as a percentage of positive cells.
(§3) Concentration-dependent effect of brusatol on: (a) NBT-reduction (monocyte/granulocyte marker) of HL-60, K562, NB4, U937, and BV173 and (b) NSE expression (monocyte marker) in K562, Kasumi-1, NB4, and BV173 cells, respectively. Data points are the mean of duplicate samples.

Kasumi-1 = assay: NSE expression (monocyte marker); assay type: cell-based; details: 4 days
Method: as §1, §2, §3

K562 = assay: NSE expression (monocyte marker); assay type: cell-based; details: 4 days
Method: as §1, §2, §3

BV173 = assay: NSE expression (monocyte marker); assay type: cell-based; details: 4 days
Method: as §1, §2, §3

Daudi cells = assay: Membrane markers of B-lymphocyte maturation by flow cytometry; assay type: cell-based; details: brusatol (10 ng/ml), control 92.5
Method: as §1
(§4) 3) Determination of cell surface antigen by flow cytometry. Cells (10^6) were washed with PBS and then incubated for 30 min at room temperature with respective monoclonal antibodies, washed with 20 volumes of diluent (PBS with 0.1% sodium azide and 1% BSA), and resuspended in 0.5 ml of fresh diluent for evaluation. Necrotic cells were excluded from the analysis by propidium iodide (PI) staining. The following mAbs (Sigma, St. Louis, Mo.) were used to assess the maturation level of myeloid cell lines: antiCD15 (Leu M1), antiCD-11b (OKM1), antiCD14 and antiCD13. The following mAbs (Sigma, St. Louis, Mo.) were used to assess the maturation level of lymphocytic cell lines: antiCD20, antiHLA-DR and antikappa light chain.
(§5) Finally, various membrane markers of B-lymphocyte maturation (i.e., CD20, superficial light chain kappa and HLA-DR) in SUPB13, RS4;11, Reh, Daudi and DHL-6 were analyzed. Few changes were observed, but brusatol induced a small increase in CD20 with DHL-6 cells (197.5 control vs. 225.3 brusatol (5 ng/ml), specific mean fluorescence intensity), and a larger increase of HLA-DR in Daudi cells (92.5 control vs. 244.9 brusatol (10 ng/ml), specific mean fluorescence intensity).

DHL-6 cells = assay: as above; assay type: cell-based; details: brusatol (5 ng/ml), control 197.5
Method: as §1, §4, §5

[4] = Cytotoxicity, viability by Trypan blue exclusion; assay type: cell-based; details: human, NB4; four days; read-out: Cytotoxicity (IC50, ng/ml)
Source text: (§6) All cells were routinely tested for mycoplasma contamination.
(§7) Cellular viability was monitored by Trypan blue exclusion.

Daudi = assay: Cytotoxicity, viability by Trypan blue exclusion; assay type: cell-based; details: for Cytotoxicity (IC50, ng/ml): Daudi, four days
Source text: as §6, §7

NB4 [5] = assay: Cytotoxicity, viability by Trypan blue exclusion; assay type: cell-based
Source text: as §6, §7

HL-60 cells = assay: In vivo hollow fiber test
Method: As a preliminary test of in vivo efficacy, a hollow fiber study was performed. The in vivo hollow fiber test was performed using literature procedures with some modifications (see M. G. Hollingshead et al., Life Sic., 57, pages 131-141 (1995)). HL-60 cells were cultured in RPMI 1640 medium and collected by centrifugation and resuspended in conditioned medium at a concentration of 2.5×10^6 cells/ml. Fibers filled with cells were incubated in 6-well plates overnight at 37° C. in a 5% CO2 atmosphere. Female athymic NCr nu/nu mice at 5-6 weeks of age were obtained from Frederick Cancer Research Facility. Each mouse hosted up to 6 fibers, which were cultured in two physiologic compartments. For intraperitoneal implants, a small incision was made through the skin and musculature of the dorsal abdominal wall, the fiber samples were inserted into the peritoneal cavity in a craniocaudal direction, and the incision was closed with skin staples. For subcutaneous implants, a small skin incision was made at the nape of the neck to allow insertion of an 11-gauge tumor implant trocar. The trocar, containing the hollow fiber samples, was inserted caudally through the subcutaneous tissues and fibers were deposited during withdrawal of the trocar. The incision was closed with a skin staple.
In preliminary studies, cell growth was assessed with fibers containing various cell densities. […] For treatment protocols, brusatol was dissolved in PBS. Mice were randomized into 7 groups: PBS vehicle control group (6 mice per group); 0.25, 0.5, 1.25, 2.5, 5, 12.5 mg/kg of brusatol (3 mice per group). Test compound brusatol was administered once daily by intraperitoneal injection from day 3-6 after implantation. Body weights were measured daily.
On day 7, mice were sacrificed and fibers were retrieved. […] Aliquots (150 μl) of extracted MTT formazan were transferred to Individual wells of 96-well plates and assessed for optical density at a wavelength of 540 nm. The effect of the treatment regimen was determined by the net growth percentage of the cells relative to change in […].

With `COC(=O)[C@@]12OC[C@]34[C@H]([C@@H](O)[C@@H]1O)[C@@]1(C)CC(=O)C(O)=C(C)[C@@H]1C[C@H]3OC(=O)[C@H](OC(=O)C=C(C)C)[C@@H]24` [compound 1, brusatol] the IC50 at 4 days [1] was 0.05 to 0.1 µg/mL (≈ 0.0961 to 0.192 µM), the “Cytotoxicity (IC50, ng/ml)” value (Reh) was 100 ± 5.4 ng/mL and the IC50 at 4 days [2] was < 0.025 µg/mL. For the same compound, the “upregulated expression of NSE” value (NB4 [3]) was “approximately 50%”, the “upregulated expression of NSE” value (Kasumi-1) was “approximately 50%” and the “upregulated expression of NSE” value (K562) was “approximately 50%”. The “upregulated expression of NSE” value (BV173) was “approximately 35%”, the “HLA-DR, specific mean fluorescence intensity” value (Daudi cells) was 244.9 and the “CD20, specific mean fluorescence intensity” value (DHL-6 cells) was 225.3. For the same compound, the IC50 at 4 days [4] was < 25 ng/mL, the “Cytotoxicity (IC50, ng/ml)” value (Daudi; listed as Brusatol) was 5 ± 0.3 ng/mL and the “Cytotoxicity (IC50, ng/ml)” value (Daudi; listed as brusatol) was “less than 25 ng/ml”. The cytotoxicity (Daudi; human, 48 h, 25 ng/ml) was 100%, the “Cytotoxicity (IC50, ng/ml)” value (NB4 [5]; NB4, four days) was 15 ± 0.2 ng/mL and the cytotoxicity (NB4 [5]; human, 48 h, 25 ng/ml) was 100%. For the same compound, the “inhibition at s.c. site” value (HL-60 cells; HL-60 hollow fibers, 5 mg/kg) was 80.8%, the “inhibitory percentage at s.c. site” value (HL-60 cells; HL-60 hollow fibers, doses from 0.25 mg/kg, below 5 mg/kg) was “around 25%” and the lethality (HL-60 cells; mice, 12.5 mg/kg) was “lethal”.
